The nature of data set [1]: clinical. Particulars: human, in vivo. As for the experimental part: A total of four clinical trials have been conducted to study the effects of rifalazil in humans. Two single-dose Phase 1 clinical trials (001) and (002) assessed the safety and pharmacokinetics of rifalazil in normal, healthy, fasted subjects. In the 001 trial, a single 300 mg dose of rifalazil was administered to six subjects. In the 002 trial, single doses of 30 mg or 100 mg were administered to eight subjects each. The results of these studies indicated a substantially higher incidence of adverse reactions at the 300 mg dose compared to the 30 mg or 100 mg dose.
The pharmacokinetics of rifalazil in whole blood in these two clinical trials was similar to that of rifalazil pharmacokinetics in plasma. […] Therefore, future pharmacokinetic analyses focused on rifalazil concentrations in plasma. Table 7 summarizes noncompartmental parameters derived from plasma concentrations in fasted subjects following administration of single doses of 30 mg, 100 mg, or 300 mg of rifalazil in these studies.
(§1) Pharmacokinetic analyses associated with clinical trials involved measurement of concentrations of rifalazil in plasma and/or whole blood of subjects participating in the four Phase 1 studies using high performance liquid chromatography.

The nature of data set [2]: clinical. Particulars: human, in vivo.
Text: as §1
Attempts were made to analyze the multiple-dose pharmacokinetics using a linear 3-compartment model, and a 3-compartment model incorporating enzyme induction. However, neither multi-compartmental model accurately characterized the pharmacokinetic parameters in all subjects. Daily dosing and related early terminations due to adverse reactions, differences in bioavailability from a food effect, and nonconnective dose administration further complicated these analyses. Therefore, only noncompartmental pharmacokinetic parameters were derived for clinical trials 003 and 004.
This is another data set of the same source.

From US7772228B2, “Method for treatment of bacterial infections with once or twice-weekly administered rifalazil” (priority 1998, dated 2010) come the findings set out here.

As usually defined, the AUC(0-inf) is total exposure, with the tail of the curve extrapolated. A low value points to less exposure. A word on the AUC(0-t): it is the area under the concentration-time curve up to a stated or last time point. As a reminder, the Cmax is the peak of the concentration-time curve. By Tmax is commonly meant the time from dosing to the highest level. The term half-life denotes the time needed for the level to fall by half in the phase considered. As to `CO[C@H]1/C=C/O[C@@]2(C)Oc3c(C)c(O)c4c(=O)c(c5oc6cc(N7CCN(CC(C)C)CC7)cc(O)c6nc-5c4c3C2=O)NC(=O)/C(C)=C\C=C\[C@H](C)[C@H](O)[C@@H](C)[C@@H](O)[C@@H](C)[C@H](OC(C)=O)[C@@H]1C` [Rifalazil, 3′-hydroxy-5′-(4-isobutyl-1-piperazinyl)benzoxasinorifamycin], the “plasma to blood ratio” value in the data set “clinical [1]” is recorded as 1.6:1. For the same compound, in “clinical [1]” (30 mg), the AUC(0-inf) worked out at 505 ng·h/mL, the AUC(0-t) stood at 197 ng·h/mL, the Cmax turned out to be 17.8 ng/mL and the Tmax stood at 3.1 h. In the data set “clinical [1]” (30 mg), this compound gave a half-life of 2920 min. Besides, in the data set “clinical [1]” (100 mg), the AUC(0-inf) is 1540 ng·h/mL, the AUC(0-t) turned out to be 800 ng·h/mL, the Cmax was determined as 53.6 ng/mL and the Tmax was found to be 4 h. Moreover, the half-life in the data set “clinical [1]” (100 mg) is 2590 min. Moreover, in the data set “clinical [1]” (300 mg), the AUC(0-inf) is 4330 ng·h/mL, the AUC(0-t) came to 1450 ng·h/mL, the highest level (Cmax) was 116 ng/mL and the Tmax amounted to 3 h. In the data set “clinical [1]” (300 mg), the half-life is 12300 min. For the same compound, the “Half-life distribution t½ (mean)” value in “clinical [2]” is 17.26 h. The compound also had a half-life in the data set “clinical [2]” (Half-life distribution t½ (mean)) of 604 min. The Tmax in the data set “clinical [2]” (Tmax (mean)) stood at 5.25 h.
